Test results: PMC6222886, “Isolation of Tricin as a Xanthine Oxidase Inhibitor from Sweet White Clover (Melilotus albus) and Its Distribution in Selected Gramineae Species” (Molecules : A Journal of Synthetic Chemistry and Natural …, 2018)

Target: T1, xanthine oxidase (XO) (Bos taurus, UniProt P80457)
T1 construct: gene XDH
Test: xanthine oxidase inhibition assay with Lineweaver-Burk kinetics (IC50 […]; KI […])
Format: biochemical

T1 sequence (P80457 2-1332): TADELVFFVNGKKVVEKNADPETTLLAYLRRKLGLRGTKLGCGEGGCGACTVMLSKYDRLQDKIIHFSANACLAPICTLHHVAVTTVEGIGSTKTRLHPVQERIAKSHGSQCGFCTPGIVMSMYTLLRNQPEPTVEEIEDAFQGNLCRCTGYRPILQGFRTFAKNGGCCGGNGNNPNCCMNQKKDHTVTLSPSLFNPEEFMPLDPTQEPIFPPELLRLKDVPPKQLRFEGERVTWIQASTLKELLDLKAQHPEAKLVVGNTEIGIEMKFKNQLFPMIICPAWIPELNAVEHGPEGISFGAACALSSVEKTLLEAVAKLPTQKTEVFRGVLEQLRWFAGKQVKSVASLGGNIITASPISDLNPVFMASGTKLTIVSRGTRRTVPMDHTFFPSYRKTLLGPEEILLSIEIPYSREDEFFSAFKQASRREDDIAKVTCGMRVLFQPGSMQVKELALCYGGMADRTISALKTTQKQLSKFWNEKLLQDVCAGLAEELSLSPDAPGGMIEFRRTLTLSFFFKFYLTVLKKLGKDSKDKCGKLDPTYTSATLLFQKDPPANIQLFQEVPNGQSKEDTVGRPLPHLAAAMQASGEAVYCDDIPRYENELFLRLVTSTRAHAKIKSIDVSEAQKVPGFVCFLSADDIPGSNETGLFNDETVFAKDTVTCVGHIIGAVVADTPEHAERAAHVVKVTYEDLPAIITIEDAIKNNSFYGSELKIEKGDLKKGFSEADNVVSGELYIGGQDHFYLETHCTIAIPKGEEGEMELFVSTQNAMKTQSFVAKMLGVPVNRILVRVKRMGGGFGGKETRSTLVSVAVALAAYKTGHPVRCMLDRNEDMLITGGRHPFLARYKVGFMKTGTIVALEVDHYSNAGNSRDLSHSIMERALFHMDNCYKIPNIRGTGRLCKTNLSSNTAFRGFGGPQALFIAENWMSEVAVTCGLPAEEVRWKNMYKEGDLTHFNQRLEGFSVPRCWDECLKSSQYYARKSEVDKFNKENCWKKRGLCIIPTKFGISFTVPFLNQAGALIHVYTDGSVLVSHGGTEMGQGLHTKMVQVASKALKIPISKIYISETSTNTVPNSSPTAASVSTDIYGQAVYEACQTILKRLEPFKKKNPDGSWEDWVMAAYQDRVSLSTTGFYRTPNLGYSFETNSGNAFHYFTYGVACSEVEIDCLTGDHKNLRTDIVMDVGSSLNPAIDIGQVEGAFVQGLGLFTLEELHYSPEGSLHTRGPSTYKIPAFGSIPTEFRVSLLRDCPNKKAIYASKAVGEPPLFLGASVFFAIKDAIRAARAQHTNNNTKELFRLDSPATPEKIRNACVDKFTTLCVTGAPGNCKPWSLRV

COc1cc(-c2cc(=O)c3c(O)cc(O)cc3o2)cc(OC)c1O [tricin]
Ki: 470 nM
